In US10806711B2 (priority 2011, dated 2020):
“Also recorded” adds a separate entry of the source.

Key:
[1] = system: Langendorff perfused hearts of WT mice; assay: Ex vivo (Langendorff) perfused isolated heart; set-up: species or system mouse; conditions: 10^−6 M perfusion
Description: Ex vivo (Langendorff) studies—Isolated heart experiments were performed as previously described on WT mice. […] Measurements were taken every second.

[2] = system: isolated ventricular myocytes; assay: Myocyte contractility measurement; format: cell-based, mouse
Description: Isolation of ventricular myocytes—Hearts from WT mice (12-week old) were perfused on the Langendorff system with a modified Krebs-Henseleit buffer (KHB) composed of (mM) NaCl 118, KCl 5.4, HEPES 10, NaH2PO4 0.33, MgCl2 2, glucose 10, taurine 30, butanedione monoxime 10 (pH=7.4). Then an enzyme solution (KHB containing 0.7 mg/ml type II collagenase, 0.1% BSA and 25 μM CaCl2) was used to digest the hearts for 10 min. Finally, ventricles of the hearts were excised, minced and filtered to obtain isolated cells. After sufficient sedimentation, the supernatant was removed and the cells were resuspended. Myocyte contractility measurement—Myocytes were put on a plexiglass chamber containing a Tyrode's solution composed of (mM) NaCl 140, KCl, 5.4, MgCl2 1, CaCl2 1.8, HEPES 5, glucose 10 (pH=7.4). Myocytes were excited under 0.5 Hz field stimulation. After reaching the steady state, myocyte shortening and the rates of shortening (+dL/dt) and relengthening (−dL/dt) were imaged with a CCD camera and monitored by a video-edge detector. Drugs were dissolved in Tyrode's solution and perfused into the chamber. Data were continuously collected through the PCLAMP 9 software. Water soluble probenecid was used for all of the myocyte experiments.

[3] = system: mice after I/R injury; assay: Ischemia/Reperfusion followed by oral probenecid (echocardiography); format: in vivo, mouse
Description: (§1) Ischemia/Reperfusion methods—Mice were anesthetized with sodium pentobarbital and the heart exposed through a left thoracotomy at the level of the fourth intercostal space. The mice were intubated and placed on a mini-ventilator (Harvard apparatus, Holliston, Mass.). A loop occluder was placed around the left anterior descending artery (LAD), and tightened, occluding it for either 30 minutes or 45 minutes. After surgery, the thorocotomy was sutured in layers, and the animal was allowed to recover. Echocardiography methods—All echocardiographic studies were performed as previously described for Example 1.

[4] = system: mice subjected to I/R; assay: Probenecid bolus followed by Ischemia/Reperfusion (infarct size, echocardiography); format: in vivo, mouse; conditions: IV pretreatment
Description: as §1, with “[…] At twenty-four hours post-I/R, echocardiography was” for “Echocardiography methods—All echocardiographic studies were”, “and the hearts subsequently removed” for “as previously described”, “determination of infarct size and normalized to the risk region.” for “Example 1.”

[5] = system: WT mice; assay: Invasive evaluation of +dP/dt (LV pressure catheter); format: in vivo, mouse; conditions: 30 mg/kg and 100 mg/kg bolus IV, 5 minutes between doses
Description: Invasive evaluation.—Once a dose range was established, a separate group of WT mice were anesthetized with an intraperitoneal injection of ketamine (50 μg/g) and inactin (thiobutabarbital, 100 μg/g, Sigma, Mass.). A tracheotomy was performed (PE-90), and body temperature was monitored and maintained with a feedback-controlled heating table. The right femoral artery was cannulated with fluid-filled polyethylene tubing for measurement of blood pressure and connected to a low compliance pressure transducer (COBE Cardiovascular, Arvada, Colo.). The right femoral vein was cannulated for delivery of drugs. A high fidelity, 1.2-French SciSence pressure catheter (SciSence, London, ON, Canada) was inserted into the right carotid artery and advanced into the left ventricle to monitor cardiac performance. ECG leads were placed on the right and left arms, and left leg and connected to a BIOAmp (AD Instruments, Colorado Springs, Colo.). For carotid blood flow measurements, the left carotid artery was isolated and fitted with a 0.5-PSB perivascular flow probe connected to a TS420 flowmeter (Transonic Systems, Ithaca, N.Y.). […] Hemodynamic variables were collected and analyzed using a MacLab 4/S system (AD Instruments, Colorado Springs, Colo.) and Chart software.

[6] = system: HL-1 cells; assay: Imaging and measurement of Ca2+ fluorescence in HL-1 cells; format: cell-based
Description: Imaging and measurement of Ca2+ fluorescence.—HL-1 cells were obtained as described above. Dissociated cells were plated on glass cover-slip (GG-25-polylysine #1, Neuvitro, Calif.) placed inside each well of six-well plates (BD Falcon). Acquisition of images were done at 40-65 Hz by using LSM 510 Meta system equipped with the inverted Axiovert 200 M BP (Carl Zeiss Microscopy, LLC, Thornwood, N.Y.) and LSMS Software. Image acquisition was done with Plan-Apochromat 40×/water with frame size of 512 (X) and 256(Y). To optimize the speed of acquisition, the acquisition area was limited to a few cells. […] Peak fluorescence before perfusion (F0) and that after perfusion (F) were determined manually after acquisition of images from the saved LSM files. Circular areas within the cytosol of each cell of the saved images over the entire duration of respective experiments were used to determine changes in fluorescence before and after perfusion. Normalized fluorescence, determined as a quotient of F/F0, was used as a variable to compare the relative changes in fluorescence at different incremental concentrations during statistical analyses. […]

[7] = system: TRPV2; conditions: HEK293 cells, identified 2007; cited from earlier work

CCCN(CCC)S(=O)(=O)c1ccc(C(=O)O)cc1 [probenecid]
change in average +dP/dt over time ([1]; paced 400 bpm): statistically significant from 90 to 210 seconds; also recorded: significantly different from baseline
relaxation (−dP/dt) ([1]; increased from 1812±158, P<0.01): 2309±133
increase of myocyte fractional shortening (FS) ([2]; 0.1 μM, 0.5 Hz, room temp, n=6): 30.8±1.4%
myocyte fractional shortening (FS) ([2]; 0.1 μM, 0.5 Hz, room temp, from 6.9% control): 9.0%
myocyte fractional shortening (FS) ([2]; 3 Hz and 32° C., n=4, from 10.1% control): 13.9%
EC50 ([2]; Mus musculus, Ventricular myocyte, isolated ventricular myocytes, averages from 4 mice, read-out: EC50 of dose-response curve on myocyte contractility): 1.6 nM
maximum +dL/dt (rate of shortening) ([2]; room temperature, n=10, from 80.6±12.3): 112.5±16.6 μm/sec
−dL/dt (rate of relengthening) ([2]; room temperature, from 57.7±7.4): 77.6±8.7 μm/sec
radial displacement ([3]; oral in water after 45 min I/R, water 0.018±0.018, p<0.05): 0.071±0.013
LV cavity size (LV Vol;d) increase ([3]; oral in water after 45 min I/R, water 22.55±4.47, p=0.076): 7.59±6.08
change in EF ([3]; oral in water after I/R (FIG. 11D legend)): slight (but not statistically significant) increase in the change in EF
systolic function (EF and global circumferential strain), pretreated vs saline ([4]; 30 and 45 minute ischemia): not significantly different; also recorded: no difference
infarct size, pretreated vs saline control ([4]; 30 and 45 minute ischemia, 24 hours of reperfusion): not significantly different; also recorded: no difference
radial displacement of the anterior wall ([4]; 30 minutes ischemia, saline 0.43±0.02): 0.46±0.06 mm
radial displacement of the anterior wall ([4]; 45 minutes ischemia, saline 0.36±0.03): 0.35±0.06 mm
radial displacement, pretreated vs control ([4]; either time point): no difference between the treatment groups
peak +dP/dt in vivo [5]: rapidly increased
median peak cytosolic fluorescence after vs before perfusion ([6]; higher probenecid concentrations (up to 10^−4)): significantly higher
median peak cytosolic fluorescence before vs after perfusion ([6]; probenecid 10^−8): No significant differences
cytosolic Ca2+ in TRPV2-expressing cells [7]: significant increase
